The METLIN SMRT retention time set (Domingo-Almenara et al. 2019)

Test: gradient 5% acetonitrile 3 min, to 50% in 2 min, to 85% in 15 min, held 3 min, 100 µL/min
Conditions: column: Zorbax Extend-C18 2.1 x 50 mm; eluents: water / acetonitrile, 0.1% formic acid
Outline: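 The mobile phases were water and acetonitrile, each with 0.1% formic acid, pumped at 100 μL/min through a Zorbax Extend-C18 column (2.1 × 50 mm, 1.8 μm). Pure standards were injected as mixtures of ~100 molecules and detected by a quadrupole time-of-flight mass spectrometer in positive and negative ionization mode. Retention time came from computationally picked adduct peaks, each inspected by hand.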

| Compound | RP-LC retention time [s] |
| --- | --- |
| O=C(NC1CCCCCCC1)C1CCN(S(=O)(=O)c2cc(C(=O)N3CCCC3)cs2)CC1 | 902 |
| CC(C)C(=O)NCC12CCC=C1N(C)C(=O)CC2 (stereo not given) | 636 |
| CC(C)CN(CC(C)C)C(=O)C1CCCN(c2ncnc3c2nc2n3CCCCC2)C1 (stereo not given) | 1000 |
| CCS(=O)(=O)c1nc2ccc(NS(=O)(=O)c3ccc(F)cc3Cl)cc2s1 | 890 |
| Cc1ccc(-c2csc(Nc3ccc(F)cn3)n2)cc1C | 1180 |
| CC(C)COC(=O)NCCc1nc2ccccc2[nH]1 | 556 |
| O=C1C(c2cccs2)N(Cc2ccco2)C(=O)CN1c1ccccc1 (stereo not given) | 734 |
| COc1nn(C)cc1C(=O)Nc1cc(C)ns1 | 598 |
| C[C@]12CC[C@H]3[C@@H](C[C@H](F)C4=CC(=O)CC[C@@]43C)[C@@H]1CC[C@@H]2O | 798 |
| CCN(Cc1ccccc1)C(=O)Cn1nc2c(N3CCSCC3)nccn2c1=O | 829 |
| Fc1ccc(-c2csc(Nc3ccccn3)n2)cc1 | 896 |
| COC(=O)C(C)NC(=O)N1CCN(c2nc3ccccc3n(Cc3ccccc3)c2=O)CC1 (stereo not given) | 869 |
| CN(C)c1ccc(C(=O)NC2CCN(c3cc(-c4cccs4)[nH]n3)C2)cc1 (stereo not given) | 721 |
| CC1CCN(c2nc(NCCN3CCOCC3)nc(N3CC4CC(C3)c3cccc(=O)n3C4)n2)CC1 (stereo not given) | 555 |
| CC(C)CCNC(=O)c1c(OCC2CC2)cc(=O)n2c1CCCCC2 | 774 |
| CC(=O)Nc1ccc(SCCCC(=O)Nc2cccc(C)n2)nn1 | 562 |
| C=CCSc1nc2ccccc2c2nc(-c3ccncc3)nn12 | 1150 |
| CCN1CCn2cc(S(=O)(=O)N3CCN(c4ccccc4Cl)CC3)cc2C1=O | 892 |
| COC(=O)c1cccc(C(=O)Nc2ccc(Br)cc2F)n1 | 1000 |
| Cn1c(C(=O)NCCc2ccccc2)cc2sc(Cl)cc21 | 1050 |
| O=c1n(Cc2ccc(F)cc2Cl)nc2ccc(S(=O)(=O)N3CCCCCC3)cn12 | 1050 |
| O=C(NCCCn1ncccc1=O)c1ccccc1C(F)(F)F | 635 |
| Cc1[nH]c(C(=O)Nc2ccc(F)c(Cl)c2)c(C)c1S(=O)(=O)N1CCCCC1 | 1020 |
| CC(C(=O)NCC1CCCO1)N1C(=O)C2CCCCN2C(=O)c2ccccc21 (stereo not given) | 664 |

| Compound | RP-LC retention time [s] |
| --- | --- |
| CN1CCCCCCN(C(=O)c2ccsc2)[C@H]2CCC[C@H]2C1=O | 797 |
| O=C(NC1CCCCCC1)c1csc(-c2ccc(N3CCOCC3)nc2)n1 | 991 |
| CC1CN(C(=O)NCC2CCCO2)c2ccccc2O1 (stereo not given) | 754 |
| O=C(NCCc1cccs1)C1CCCN(c2nccn3nc(-c4ccccc4Cl)cc23)C1 (stereo not given) | 947 |
| CCCCN(C)S(=O)(=O)c1c(C)nn(-c2ccc(-c3ccccc3)nn2)c1C | 1160 |
| COc1cccc(CN2CCc3nc(N4CCCC4)ncc3C2)c1OC | 610 |
| O=C(NCc1cccnc1-c1ccccc1)c1ccc(Br)cc1 | 686 |
| CC(C)C(=O)N1CCOc2ccc(N(C)C)cc2C1 | 575 |
| O=C(NCc1ccc(F)cc1Cl)C1CCCN(c2cnc3nccnc3c2)C1 (stereo not given) | 748 |
| COCC(=O)N1CCCn2cc(-c3ccccc3F)nc21 | 668 |
| CC1(C(=O)NCc2ccccc2)Cn2cnc(C(=O)NCc3ccccc3Cl)c2C(=O)N1C1CC1 (stereo not given) | 816 |
| CN1C(=O)c2cccn2CC1CNC(=O)c1cccs1 (stereo not given) | 628 |
| O=C1COc2ccc(S(=O)(=O)N3CCC(C(=O)N4CCOCC4)CC3)cc2N1 | 620 |
| CCCCNC(=O)C1CCCN(c2nnc3ccc(Cl)cn23)C1 (stereo not given) | 704 |
| CCN(CC)CCCC(C)Nc1cc(Cl)cc2nc3ccc(OC)cc3cc12 (stereo not given) | 609 |
| Cc1ccc(NC(=O)N2CCC(c3nc(C(=O)N4CCCC4)c(C)o3)CC2)cc1F | 835 |
| CCc1nc(C2CCN(C(=O)C3(c4ccc(OC)cc4)CC3)CC2)n[nH]1 | 551 |
| O=C(NC1CCCCC1)c1nnc(-c2ccc(S(=O)(=O)N3CCCCC3)cc2)o1 | 1040 |
| CN(C)c1ccc(C(CNC(=O)c2cccs2)N(C)C)cc1 (stereo not given) | 618 |
| COC(=O)c1c(C)[nH]c(C(=O)N2CCC(CC(=O)NCCc3ccco3)CC2)c1C | 683 |
| CCC1CCCCN1CCNC(=O)C1CCCN(c2cnc3nccnc3c2)C1 (stereo not given) | 569 |
| COc1cccc(CN2C[C@@H](CO)[C@H](c3ccccn3)C2)c1OC | 592 |
| CCc1ccc(N2CC(c3noc(-c4ccccc4Cl)n3)CC2=O)cc1 (stereo not given) | 1050 |
| CC1CCN(c2cncnc2-n2cc(NC(=O)Cc3cccs3)cn2)CC1 | 740 |

Further lines, results first:

| RP-LC retention time [s] | Compound |
| --- | --- |
| 896 | CCOc1ccccc1C(=O)NC(c1ccccc1)c1nnc(N2CCCC2)o1 (stereo not given) |
| 1110 | CCn1cc(-c2nc(C(=O)Nc3ccc(OC)c(Cl)c3)cs2)c2cccnc21 |
| 764 | CCC(C)NC(=O)CN1C(=O)CSc2c1c(C)nn2-c1ccccc1 (stereo not given) |
| 781 | CC1CS(=O)(=O)N(c2cccc(C(=O)N3CCCc4ccccc43)c2)C1=O (stereo not given) |
| 814 | COc1ccc(CNC2=NCCNC23CCN(S(=O)(=O)c2ccc(C(C)C)cc2)CC3)cc1 |
| 1030 | O=C(Cn1cccc1-c1nc(-c2ccc(Cl)cc2)cs1)NCC1CCCO1 (stereo not given) |
| 690 | COCc1nc2nccc(-c3ccc(OC)cc3)n2n1 |
| 1040 | CCOC(=O)c1nnn(-c2ccc(OCC)cc2)c1C(=O)OCC |
| 1100 | CCCN1C(=O)c2cc(S(=O)(=O)Nc3ccc(F)c(C)c3)ccc2Oc2cccnc21 |
| 654 | COc1cccc(NC(=O)N2CC(C)Oc3ccc(C)cc32)c1 (stereo not given) |
| 860 | O=C(CCn1nnc2cc(-c3noc(Cc4ccc(Br)cc4)n3)ccc21)N1CCOCC1 |
| 1130 | CCOc1ccc(C(=O)n2nc(C)c(S(=O)(=O)N3CCCC3)c2C)cc1 |
| 810 | COc1ccc(-c2ncc3c(n2)CCN(C(=O)Nc2cccc(C(C)=O)c2)C3)cc1 |
| 637 | CCOc1ccc(NC(=O)CN2CCc3c(c(=O)c4cc(C)ccc4n3C)C2)cc1 |
| 682 | Cc1ccn2cc(-c3ccc(NS(=O)(=O)c4ccc(C)c(C)c4)cc3)nc2n1 |
| 637 | O=C(CN1CCC2(CC1)NC(=O)c1ccccc1N2)Nc1ccc(Cl)cc1 |
| 821 | O=C(Cn1c(=O)c2cc(-c3cccs3)nn2c2ncccc21)NCc1ccc(F)cc1 |
| 843 | CC(C)n1c(N2CCCN(C(=O)COc3ccccc3)CC2)cc(=O)n(C(C)C)c1=O |
| 613 | O=C(c1ccc(=O)n(CCN2CCOCC2)c1)N1CCN(c2ccccc2F)CC1 |
| 574 | CCN1CCN(CCNC(=O)c2sc3ncccc3c2-n2c(C)ccc2C)CC1 |
| 818 | Cc1cc(NC(=O)Cn2c(=O)c3cc(C4CC4)nn3c3ncccc32)ccc1F |

| RP-LC retention time [s] | Compound |
| --- | --- |
| 901 | O=C1[C@H]2CN(Cc3ccc(Cl)c(F)c3)C[C@H]2C(=O)N1CCc1ccccc1 |
| 1120 | COc1cccc(-c2noc(C3CCCN3C(=O)Nc3ccc(C)cc3Cl)n2)c1 (stereo not given) |
| 985 | O=C(NCCn1cnc2cc(C(=O)N3CCCC3)ccc21)NCc1ccco1 |
| 659 | CCN1CCN(C(=O)C2CCN(c3ccc(Sc4ccc(C(C)C)cc4)nn3)CC2)CC1 |
| 801 | COc1cccc(CNC(=O)CCc2nc3c(C)cccc3c(=O)n2C)c1 |
| 645 | CCc1nc(N)n(CC(=O)NCc2ccc(Cl)cc2)c(=O)c1C |
| 765 | CCCCN(C)C(=O)Cn1ccn2nc(-c3ccc(F)cc3)c(CO)c2c1=O |
| 1220 | Cc1ccc(C)c(-c2cc3c(=O)n(Cc4nc(-c5ccc(Cl)cc5)no4)ncn3n2)c1 |
| 647 | O=C(Nc1cccc(-c2ccc(N3CCCC3)nn2)c1)c1ccccc1F |
| 690 | CCc1cccc(NS(=O)(=O)c2cc3n(c2)CCCNC3=O)c1 |
| 848 | CCN(CC)c1nc2ccsc2c(=O)n1CCC(=O)NCc1ccc(F)cc1F |
| 1180 | Cc1nc2cc(-c3noc(-c4ccc(C(F)(F)F)cc4)n3)ccc2n(C)c1=O |
| 576 | CCOc1ccc(-c2ccc(=O)n(Cc3nc(-c4ccc(C)c(C)c4)no3)n2)cc1 |
| 682 | O=C(CN1C(=O)COc2ccc(C(=O)N3CCCC3)cc21)NCc1ccc2c(c1)OCO2 |
| 644 | Cc1oc2c(c1C(=O)Nc1ccc(Br)cc1)C1=NCCN1C=N2 |
| 898 | CCn1cc(-c2ccc(C)cc2)cc1C(=O)O |
| 906 | COc1ccc(Nc2c(C(=O)N3CCCC3)cnc3nc(C)ccc23)cc1OC |
| 1280 | CCOc1ccc(C(=O)n2nc(C)c(S(=O)(=O)N3CCC(C)CC3)c2C)cc1 |
| 1070 | Cc1cc(C)c(S(=O)(=O)N2CCC(C(=O)NCCc3csc(-c4ccccc4)n3)CC2)c(C)c1 |
| 824 | CCOC(=O)c1ccc(NC(=O)NCC(c2cccnc2)c2cn(C)c3ccccc23)cc1 (stereo not given) |
| 959 | CN(C)c1ccc(N2C=C(C(=O)N3CCCCC3)S(=O)(=O)c3ccc(F)cc32)cc1 |
